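Where inhibition never reached the appropriate level, the endpoint shown equals the highest concentration tested. Otherwise, values were interpolated linearly from a five-concentration, 48-hour dose response in 96-well plates. GI50 marks 50% less growth. TGI: total growth inhibition.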
Experiments:
Test in all cases: inhibition of tumour cell growth, NCI panel, 48 h
[1] = system: NCI-H226 lung
[2] = system: A549 NSCLC
[3] = system: UACC-62 melanoma
[4] = system: SNB-75 CNS
[5] = system: SK-MEL-5 melanoma
[6] = system: K-562 leukemia
[7] = system: SF-539 CNS
[8] = system: KM12 colon
[9] = system: MCF7 breast
[10] = system: MOLT-4 leukemia

Compound	GI50 [1] [µM]	TGI [1] [µM]	GI50 [2] [µM]	TGI [2] [µM]	GI50 [3] [µM]	TGI [3] [µM]	GI50 [4] [µM]	TGI [4] [µM]	GI50 [5] [µM]	TGI [5] [µM]	GI50 [6] [µM]	TGI [6] [µM]	GI50 [7] [µM]	TGI [7] [µM]	GI50 [8] [µM]	TGI [8] [µM]	GI50 [9] [µM]	TGI [9] [µM]	GI50 [10] [µM]	TGI [10] [µM]
COc1cc(NCCCCCN=C(N)NC(N)=NC(C)C)c2ncccc2c1	7.52	24.8	11.6	26.3	2.69	8.96	0.666	4.4	1.44	3.01	0.607	19.3	2.3	12.8	1.07	3.28	0.0313	0.16	0.518	11
COc1c(N2CCN(CN3C(=O)C(=Nc4ccc(S(=O)(=O)Nc5ncccn5)cc4)c4cc(Cl)ccc43)C(C)C2)c(F)cc2c(=O)c(C(=O)O)cn(C3CC3)c12 (stereo not given)	30	> 50	18.5	> 50	13.7	49.9	19.1	> 50	7.99	15.8	21.5	> 50	15.4	40.9	9.61	26.8	11.9	44.4	33.3	> 50
CNC(=O)c1cncc(/C=C/c2ccccc2Cl)c1	> 25	> 25	> 25	> 25	> 25	> 25	> 19.7	> 25	> 25	> 25	> 25	> 25	> 25	> 25	> 25	> 25	> 25	> 25	> 25	> 25
